Data reported in US6133292A, “Diaryl-5-alkyl-5-methyl-2-(5H)-furanones as selective cyclooxygenase-2-inhibitors” (Merck Frosst Canada & Co., priority 1998, dated 2000).

Assays:
COX-2 = target: T1, COX-2 (Homo sapiens, UniProt P35354); assay: Whole cell assay for COX-2 using CHO transfected cell line (CHO [hCOX-2]); format: cell-based; parameters: expressed in transfected cells; host or cells: Chinese hamster ovary (CHO) cells, stably transfected, CHO[hCOX-2]; conditions: CHO[hCOX-2] cells, 10 μM AA; read-out: CHO Cox-2 (IC50, inhibition of PGE2 production)
T1 sequence (P35354 18-604): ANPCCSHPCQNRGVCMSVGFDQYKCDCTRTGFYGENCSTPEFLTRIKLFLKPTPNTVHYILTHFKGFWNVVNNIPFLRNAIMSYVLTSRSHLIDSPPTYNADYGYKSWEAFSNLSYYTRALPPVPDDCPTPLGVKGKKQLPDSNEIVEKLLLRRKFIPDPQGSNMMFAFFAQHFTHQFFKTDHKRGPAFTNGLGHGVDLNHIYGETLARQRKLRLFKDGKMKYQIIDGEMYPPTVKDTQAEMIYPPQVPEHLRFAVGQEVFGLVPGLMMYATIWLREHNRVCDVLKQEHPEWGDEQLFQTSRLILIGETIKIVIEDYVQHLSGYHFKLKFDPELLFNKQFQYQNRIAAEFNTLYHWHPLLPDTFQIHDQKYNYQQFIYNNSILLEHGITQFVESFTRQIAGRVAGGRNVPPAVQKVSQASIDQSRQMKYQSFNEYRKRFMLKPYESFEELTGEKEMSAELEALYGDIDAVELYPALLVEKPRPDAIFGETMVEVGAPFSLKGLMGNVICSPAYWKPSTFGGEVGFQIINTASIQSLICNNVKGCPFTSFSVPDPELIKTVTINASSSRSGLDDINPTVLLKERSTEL
Excerpt: Whole cell assays for COX-2 and COX-1 using CHO transfected cell lines
Chinese hamster ovary (CHO) cell lines which have been stably transfected with an eukaryotic expression vector pCDNAIII containing either the human COX-1 or COX-2 cDNA's are used for the assay. These cell lines are referred to as CHO [hCOX-1] and CHO [hCOX-2], respectively. For cyclooxygenase assays, CHO[hCOX-1] cells from suspension cultures and CHO[hCOX-2] cells prepared by trypsinization of adherent cultures are harvested by centrifugation (300 x g, 10 min) and washed once in HBSS containing 15 mM HEPES, pH 7.4, and resuspended in HBSS, 15 mM HEPES, pH 7.4, at a cell concentration of 1.5×10^6 cells/ml. Drugs to be tested are dissolved in DMSO to 66.7-fold the highest test drug concentration. Compounds are typically tested at 8 concentrations in duplicate using serial 3-fold serial dilutions in DMSO of the highest drug concentration. Cells (0.3×10^6 cells in 200 μl) are preincubated with 3 μl of the test drug or DMSO vehicle for 15 min at 37° C. Working solutions of peroxide-free AA (5.5 μM and 110 μM AA for the CHO [hCOX-1] and CHO [COX-2] assays, respectively) are prepared by a 10-fold dilution of a concentrated AA solution in ethanol into HBSS containing 15 mM HEPES, pH 7.4. Cells are then challenged in the presence or absence of drug with the AA/HBSS solution to yield a final concentration of 0.5 μM AA in the CHO[hCOX-1] assay and a final concentration of 10 μM AA in the CHO[hCOX-2] assay. The reaction is terminated by the addition of 10 μl 1 N HCl followed by neutralization with 20 μl of 0.5 N NaOH. The samples are centrifuged at 300 x g at 4° C. for 10 min, and an aliquot of the clarified supernatant is appropriately diluted for the determination of PGE2 levels using an enzyme-linked immunoassay for PGE2 (Correlate PGE2 enzyme immunoassay kit, Assay Designs, Inc.). Cyclooxygenase activity in the absence of test compounds is determined as the difference in PGE2 levels of cells challenged with arachidonic acid versus the PGE2 levels in cells mock-challenged with ethanol vehicle. Inhibition of PGE2 synthesis by test compounds is calculated as a percentage of the activity in the presence of drug versus the activity in the positive control samples.
Compounds of the present invention are inhibitors of COX-2 and are thereby useful in the treatment of COX-2 mediated diseases as enumerated above. The activities of the compounds against cyclooxygenase may be seen in the representative results shown below. In the assay, inhibition is determined by measuring the amount of prostaglandin E2 (PGE2) synthesized in the presence of arachidonic acid, COX-1 or COX-2 and a putative inhibitor. The IC50 values represent the concentration of putative inhibitor required to lower PGE2 synthesis to 50% of that obtained as compared to the uninhibited control.

COX-1 = COX-1 (Homo sapiens, UniProt P23219); assay: Human whole blood assay, COX-1 (clotting-induced TxB2 production); format: cell-based; parameters: platelets in whole blood contain a large amount of the COX-1 enzyme; from tissue; host or cells: fresh human whole blood without anticoagulant, platelets; conditions: clotting-induced TxB2, 1 hour at 37° C, read-out: HWB Cox-1 (IC50)
Experimental: Human whole blood provides a protein and cell-rich milieu appropriate for the study of biochemical efficacy of anti-inflammatory compounds such as selective COX-2 inhibitors. […] This is consistent with the observation that COX-2 inhibitors have no effect on PGE2 production in normal blood. These inhibitors are active only after incubation of human whole blood with LPS, which induces COX-2. This assay can be used to evaluate the inhibitory effect of selective COX-2 inhibitors on PGE2 production. As well, platelets in whole blood contain a large amount of the COX-1 enzyme. Immediately following blood clotting, platelets are activated through a thrombin-mediated mechanism. This reaction results in the production of thromboxane B2 (TXB2) via activation of COX-1. Thus, the effect of test compounds on TxB2 levels following blood clotting can be examined and used as an index for COX-1 activity. Therefore, the degree of selectivity by the test compound can be determined by measuring the levels of PGE2 after LPS induction (COX-2) and TxB2 following blood clotting (COX-1) in the same assay.
B. COX-1 (Clotting-induced TxB2 production)
Fresh blood is collected into vacutainers containing no anticoagulants. […] The tubes are vortexed and incubated at 37° C. for 1 hour to allow blood to clot. At the end of incubation, serum is obtained by centrifugation (12,000 x g for 5 min.). A 100 μL aliquot of serum is mixed with 400 μL of methanol for protein precipitation. The supernatant is obtained and is assayed for TxB2 using a enzyme immunoassay kit (Cayman, #519031) according to the manufacturer's instruction. […]

COX-1, sequence (P23219 24-599): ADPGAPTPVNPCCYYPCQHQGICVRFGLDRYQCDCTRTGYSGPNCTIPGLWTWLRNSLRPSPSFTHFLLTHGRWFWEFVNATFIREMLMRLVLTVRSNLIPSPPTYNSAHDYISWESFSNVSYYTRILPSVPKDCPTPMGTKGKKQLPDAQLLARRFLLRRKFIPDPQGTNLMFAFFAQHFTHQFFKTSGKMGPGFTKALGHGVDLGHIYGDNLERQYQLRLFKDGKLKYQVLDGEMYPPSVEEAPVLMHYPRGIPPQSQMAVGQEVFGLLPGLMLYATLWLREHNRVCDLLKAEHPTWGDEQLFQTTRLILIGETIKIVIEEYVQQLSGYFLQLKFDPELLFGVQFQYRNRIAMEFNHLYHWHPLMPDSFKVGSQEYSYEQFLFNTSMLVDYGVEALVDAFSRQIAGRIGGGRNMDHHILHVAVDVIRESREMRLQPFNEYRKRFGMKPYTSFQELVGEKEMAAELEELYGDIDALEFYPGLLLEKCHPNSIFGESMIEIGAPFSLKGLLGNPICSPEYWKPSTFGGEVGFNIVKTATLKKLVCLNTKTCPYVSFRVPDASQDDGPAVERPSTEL

| Structure (SMILES) | IC50 (COX-2) [nM] | IC50 (COX-1) [µM] |
| --- | --- | --- |
| CC1(C)OC(=O)C(c2ccc(F)cc2)=C1c1ccc(S(C)(=O)=O)cc1 [Compound T3-1, 3-(4-fluorophenyl)-5,5-dimethyl-4-[4-(methylsulfonyl)phenyl]-2,5-dihydro-2-furanone, reference compound] | 42 | 86.1 |
| CCC1(C)OC(=O)C(c2ccc(F)cc2)=C1c1ccc(S(C)(=O)=O)cc1 (stereo not drawn) [c, 5-ethyl-3-(4-fluorophenyl)-5-methyl-4-[4-(methylsulfonyl)phenyl]-2,5-dihydro-2-furanone] | 22 | > 30 |
| CC[C@]1(C)OC(=O)C(c2ccc(F)cc2)=C1c1ccc(S(C)(=O)=O)cc1 [d, (5S)-5-ethyl-3-(4-fluorophenyl)-5-methyl-4-[4-(methylsulfonyl)phenyl]-2,5-dihydro-2-furanone] | 57 | 8.3 |
| CC[C@@]1(C)OC(=O)C(c2ccc(F)cc2)=C1c1ccc(S(C)(=O)=O)cc1 [e, (5R)-5-ethyl-3-(4-fluorophenyl)-5-methyl-4-[4-(methylsulfonyl)phenyl]-2,5-dihydro-2-furanone] | 20 | 46 |
| CC[C@@]1(C)OC(=O)C(c2ccc(F)c(F)c2)=C1c1ccc(S(C)(=O)=O)cc1 [h, (5R)-3-(3,4-difluorophenyl)-5-ethyl-5-methyl-4-[4-(methylsulfonyl)phenyl] -2,5-dihydro-2-furanone] | 51 | 76 |
| CC[C@]1(C)OC(=O)C(c2ccc(F)c(F)c2)=C1c1ccc(S(C)(=O)=O)cc1 [i, (5S)-3-(3,4-difluorophenyl)-5-ethyl-5-methyl-4-[4-(methylsulfonyl)phenyl] -2,5-dihydro-2-furanone] | 42 | 46.4 |
| CCCC1(C)OC(=O)C(c2ccc(F)cc2)=C1c1ccc(S(C)(=O)=O)cc1 (stereo not drawn) [n, 3-(4-fluorophenyl)-5-methyl-4-[4-(methylsulfonyl)phenyl]-5-propyl-2,5-dihydro-2-furanone] | 194 | > 90 |
| CCCC1(C)OC(=O)C(c2cccc(F)c2)=C1c1ccc(S(C)(=O)=O)cc1 (stereo not drawn) [o, 3-(3-fluorophenyl)-5-methyl-4-[4-(methylsulfonyl)phenyl]-5-propyl-2,5-dihydro-2-furanone] | 692 |  |
| CCCC1(C)OC(=O)C(c2ccc(F)c(F)c2)=C1c1ccc(S(C)(=O)=O)cc1 (stereo not drawn) [p, 3-(3,4-difluorophenyl)-5-methyl-4-[4-(methylsulfonyl)phenyl]-5-propyl-2,5-dihydro-2-furanone] | 237 |  |
| CCC1(CC)OC(=O)C(c2ccccc2)=C1c1ccc(S(C)(=O)=O)cc1 [t, 5,5-diethyl-4-[4-(methylsulfonyl)phenyl]-3-phenyl-2,5-dihydro-2-furanone, reference compound] | > 5000 |  |
| CCC1(CC)OC(=O)C(c2ccc(F)cc2)=C1c1ccc(S(C)(=O)=O)cc1 [u, 5,5-diethyl-3-(4-fluorophenyl)-4-[4-(methylsulfonyl)phenyl]-2,5-dihydro-2-furanone, reference compound] | > 5000 |  |
